Measured values from patent US20250340881A1, “PHARMACEUTICAL COMPOSITION FOR TREATING CANCER COMPRISING FOXM1 MUTANT OR FOXM1 SHRNA” (Industry-University Cooperation Foundation Hanyang …, priority 2022, published 2025).

Assays:
Format in all cases: cell-based
A549 lung cancer cells [1] = assay: Transwell migration assay of A549 cells expressing FoxM1 WT or point mutants; settings: Transwell, 72 hours, control set to 1; TGF-β 5 ng/ml positive control
Method: To examine the effects of FoxM1 WT, phosphorylation, and non-phosphorylated point mutants on the motility of cancer cells, the migration assay was performed in A549 lung cancer cells expressing mutant proteins.
Specifically, 5×10^4 cells of lung cancer cells A549 expressing each of WT, phosphorylation, and non-phosphorylated point mutant of FoxM1 were seeded in an 8.0 μm, 24 well insert, and the inserts were placed in a 24-well plate after medium with 10% fetal bovine serum (FBS) was dispensed in the 24-well plate. For the positive control, 0.5 ml of RPMI1640 (10% FBS) containing 5 ng/ml of TGF-β was used. After 72 hours from cell seeding, 500 μl of 4% paraformaldehyde was dispensed, washed three times with 1×PBS, and stained with 0.05% crystal violet solution for 5 minutes. After 5 minutes, the cells were washed five times with 1×PBS, and the staining intensity was measured using the Odyssey infrared imaging system.
Specifically, 5×10^4 cells of lung cancer cells A549 expressing control and FoxM1 WT were seeded in an 8.0 μm, 24 well insert, and the inserts were placed in a 24-well plate after medium with 10% fetal bovine serum (FBS) was dispensed in the 24-well plate. For the positive control, 0.5 ml of RPMI1640 (10% FBS) containing 5 ng/ml of TGF-β was added and used. After 72 hours from cell seeding, 500 μl of 4% paraformaldehyde was dispensed, washed three times with 1×PBS, and stained with 0.05% crystal violet solution for 5 minutes. After 5 minutes, the cells were washed five times with 1×PBS, and the staining intensity was measured using the Odyssey infrared imaging system.

A549 lung cancer cells [2] = assay: Wound healing assay of A549 cells expressing FoxM1 phosphorylated point mutants; settings: distance in the control group at 72 h set to 0%
Method: To observe the effects of phosphorylation point mutations on the motility of cancer cells, a wound healing assay was performed in lung cancer cells A549 expressing FoxM1 wild type (WT), phosphorylated point mutants S25E, S361E, and S715E, and a simultaneous triple-point mutation EEE protein.
Specifically, cells expressing the gene of FoxM1 point mutant by the lentivirus system were seeded into 6-well plates at 1×10^5 cells/well each. 24 hours after cell seeding, scratches were made at regular intervals using a 200 μl-pipette tip. In addition, A549 cells treated with mock as a negative control (Mock) and 5 ng/ml of TGF-β as a positive control were used. […] In addition, the distance in the control group at 72 h was set to 0%, and the relative distance was represented as a bar graph (FIG. 4G).

A549 lung cancer cells [3] = assay: Migration assay of TGF-β-treated A549 cells treated with peptide; settings: TGF-β 5 ng/ml, 48 hours
Method: To determine the effects of treatment of the FoxM1 non-phosphorylated point mutant peptide on cancer cell motility in the metastatic environment treated with TGF-β, a migration assay was performed.
Specifically, 5×10^4 cells of A549 lung cancer cells were seeded in an 8.0 μm, 24 well insert, and the inserts were placed in a 24-well plate after medium with 10% fetal bovine serum (FBS) was dispensed in the 24-well plate. For the positive control, 0.5 ml of RPMI1640 (10% FBS) containing 5 ng/ml of TGF-β was dispensed, and 5 μM of the non-phosphorylated point mutant peptide was treated simultaneously. After 48 hours from cell seeding, 500 μl of 4% paraformaldehyde was dispensed into the plate, and the plate was washed three times with 1×PBS and stained with 0.05% crystal violet solution for 5 minutes. After 5 minutes, the plate was washed with 1×PBS five times, and the stained intensity was measured using the Odyssey infrared imaging system. When the stained intensity of the control group was set to 1, the relative stained intensity of each experimental group was represented in a graph.

TGF-β [reference compound]
cancer cell migration (stained intensity), increase compared to the control group (A549 lung cancer cells [1]): approximately 4 fold
relative healing distance (motility) at 72 h (A549 lung cancer cells [2]): 51%
stained intensity (migration) compared to the control group (A549 lung cancer cells [3]): 4 folds
